Measurements taken from PMC12590273, “Systematic design of DMBT1-derived peptides correlating physicochemical properties and sequence motifs with siRNA delivery and efficacy in cancer therapy” (eBioMedicine, 2025).
Non-standard residues stand in square brackets, D forms with d. Residues, ends and D or L forms follow the SMILES beside them.

What was measured:
A375 and MCF7 cells = test: Cell internalisation of DCPP/Alexa Fluor 555 siRNA complexes (statements not split by cell line); type: cell-based; settings: Alexa Fluor 555 siRNA 25–100 nM, 24 h, fluorescence normalised to crystal violet; cell line not stated
Procedure: A375 (RRID: CVCL_0132) and MCF7 cells (RRID: CVCL_0031) were obtained from ATCC. MEL-STV cells (here called MelST, RRID: CVCL_9U71) are immortalised human melanocytes generated by introducing SV40 large T antigen and hTERT. They are non-tumorigenic and were kindly provided by Dr. Robert Allan Weinberg (Whitehead Institute, MIT). All cell lines were cultured in DMEM + GlutaMax™ with 5% FBS at 37 °C/5% CO2. Working solutions of Alexa Fluor 555 siRNA were prepared in UltraPure DNase/RNase-Free Distilled Water at concentrations of 100–400 nM, and peptide solutions were prepared to achieve the desired peptide–siRNA binding molar ratios, selected based on the siRNA binding efficiency of each peptide. siRNA was mixed with its respective peptide solution and incubated for 30 min at 37 °C or 1 h at 50 °C, depending on the peptide. After incubation, the complexes were diluted in OptiMEM and added to the wells at 50 μL per well, with final siRNA concentrations ranging from 25 to 100 nM. […] OptiMEM without phenol red was added, and fluorescence was measured using Alexa Fluor 555 (excitation/emission: 553/568 nm, reading: 535/595 nm). Cells were subsequently stained with crystal violet and resuspended in citrate buffer, and absorbance was measured. Crystal violet absorbance was used to normalise the fluorescence signal, accounting for cell density or viability differences.

[1] = tested on: siRNA (Stealth RNAi Negative Control siRNA); test: Electrophoretic mobility shift assay (EMSA), peptide-siRNA binding/encapsulation; settings: peptides 10–100 μM mixed with siRNA at 1:10–1:100 molar ratios in RNase-free water, 30 min 37 °C or 1 h 50 °C; 4% agarose gel, MOPS pH 7.5, GelRed
Procedure: Peptides (10–100 μM) were mixed with siRNA at 1:10–1:100 molar ratios in RNase-free water and incubated 30 min at 37 °C (or 1 h at 50 °C for low-binding peptides). Complexes, supplemented with 5% glycerol, were run on 4% agarose gels in MOPS buffer (pH 7.5) at 70 V for 30 min, stained with GelRed, and imaged under UV. FastRuler UltraLow served as the size marker.

GAPDH in A375 cells = test: GAPDH silencing by DCPP/GAPDH-siRNA complexes (KDalert kit); type: cell-based, human; settings: 2.5% FBS, 48 h, three biological replicates
Procedure: GAPDH silencing: DCPP/GAPDH-siRNA complexes were prepared as above, diluted in OptiMEM, and added (50 μL) to 96-well plates. A375 and MCF7 cells (2 × 10^3 cells/well) in 50 μL OptiMEM + 5% FBS + 1% P/S were plated onto the complexes (final 100 μL, 2.5% FBS). After 48 h, GAPDH knock-down was measured with the KDalert™ kit.

Compound	shape of dose–response curve of cell interaction (A375 and MCF7 cells)	siRNA binding / encapsulation (peptide-siRNA binding molar ratio by EMSA) [1]	GAPDH silencing in A375 cells (GAPDH in A375 cells)
SREPRGD	sigmoid curve with a plateau	efficiently bound siRNA	significant gene silencing
Ac-GRVEVLRRRRWKPSSPPEEHH-NH2 [D4RA6H, CD44-targeting DMBT1-derived peptide containing the A6 motif]	–	no detectable siRNA binding	–
CC(=O)N[C@@H](CCCCN)C(=O)N1CCC[C@H]1C(=O)N[C@@H](CO)C(=O)N[C@@H](CO)C(=O)N1CCC[C@H]1C(=O)N1CCC[C@H]1C(=O)N[C@@H](CCC(=O)O)C(=O)N[C@@H](CCC(=O)O)C(=O)NCC(=O)N[C@H](CCCNC(=N)N)C(=O)N[C@H](C(=O)N[C@@H](CCC(=O)O)C(=O)N[C@H](C(=O)N[C@@H](CC(C)C)C(=O)N[C@@H](Cc1c[nH]cn1)C(=O)N[C@@H](Cc1c[nH]cn1)C(=O)N[C@@H](Cc1c[nH]cn1)C(=O)N[C@@H](Cc1c[nH]cn1)C(=O)N[C@H](Cc1c[nH]c2ccccc12)C(=O)N[C@@H](CCCNC(=N)N)C(=O)N[C@@H](CCCNC(=N)N)C(=O)N[C@@H](CCCNC(=N)N)C(=O)N[C@@H](CCCNC(=N)N)C(=O)N[C@H](Cc1c[nH]c2ccccc12)C(N)=O)C(C)C)C(C)C [A6DH, Ac-KPSSPPEEGrVEVLHHHHwRRRRw-NH2] (Ac-KPSSPPEEG[dR]VEVLHHHH[dW]RRRR[dW]-NH2)	–	no detectable siRNA binding	–
SREPRGDK	–	efficiently bound siRNA	–
